ChEMBL document CHEMBL1201862, “PubChem BioAssay data set” (2004)
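Assay format: 96-well plates, 48-hour exposure. Abbreviation: GI50, concentration required for 50% inhibition of growth.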 The source made the active and inactive calls. Rule as the data show it: active = GI50 up to about 1.1 µM and inactive = higher.

Assays:
Assay in all cases: inhibition of tumour cell growth, NCI panel, 48 h
[1] = system: SK-MEL-5
[2] = system: LOX IMVI
[3] = system: U-251
[4] = system: OVCAR-4
[5] = system: NCI/ADR-RES
[6] = system: CAKI-1
[7] = system: UACC-62
[8] = system: NCI-H226
[9] = system: SN12C
[10] = system: SF-295
[11] = system: PC-3
[12] = system: KM12
[13] = system: OVCAR-5
[14] = system: SK-MEL-28
[15] = system: SF-539
[16] = system: SF-268
[17] = system: NCI-H23
[18] = system: SR
[19] = system: EKVX
[20] = system: HOP-62

Structure (SMILES) | GI50 [1] | GI50 [2] | GI50 [3] | GI50 [4] | GI50 [5] | GI50 [6] | GI50 [7] | GI50 [8] | GI50 [9] | GI50 [10] | GI50 [11] | GI50 [12] | GI50 [13] | GI50 [14] | GI50 [15] | GI50 [16] | GI50 [17] | GI50 [18] | GI50 [19] | GI50 [20]
COc1c(/C=C/C(C)(C)O)cc(C2CC(=O)c3c(O)cc(O)cc3O2)cc1CC=C(C)C (stereo not drawn) | 8.47 µM (inactive) | 4.44 µM (inactive) | 7.71 µM (inactive) | 10.4 µM (inactive) | 12.1 µM (inactive) | 16 µM (inactive) | 6.79 µM (inactive) | 9.71 µM (inactive) | 6.27 µM (inactive) | 7.26 µM (inactive) | 8.53 µM (inactive) | 10.4 µM (inactive) | 9.14 µM (inactive) | 13.2 µM (inactive) | 9.4 µM (inactive) | 9.04 µM (inactive) | 9.02 µM (inactive) | – | – | –
CN(Cc1cnc2nc(N)nc(N)c2n1)c1ccc(C(=O)NC23CC4CC(CC(C4)C2)C3)cc1 | 4.19 µM (inactive) | 5.48 µM (inactive) | 12 µM (inactive) | – | 42.8 µM (inactive) | 12 µM (inactive) | 3.66 µM (inactive) | 13.1 µM (inactive) | 20.4 µM (inactive) | 4.69 µM (inactive) | 4.58 µM (inactive) | 12.3 µM (inactive) | 12.2 µM (inactive) | – | – | 5.55 µM (inactive) | 10.2 µM (inactive) | 12.7 µM (inactive) | 13.2 µM (inactive) | 12.6 µM (inactive)
O=C(CCCCCCCCC(=O)N1C(=O)CC(=O)N(c2cccc(Cl)c2)C1=S)N1C(=O)CC(=O)N(c2cccc(Cl)c2)C1=S | 28.7 µM (inactive) | 47.1 µM (inactive) | 35.6 µM (inactive) | 37.7 µM (inactive) | 27.2 µM (inactive) | 20.5 µM (inactive) | 21.9 µM (inactive) | – | 40.2 µM (inactive) | 28.1 µM (inactive) | 26.6 µM (inactive) | 40.3 µM (inactive) | 56.6 µM (inactive) | – | – | 57.4 µM (inactive) | 39.7 µM (inactive) | 26.1 µM (inactive) | 38.3 µM (inactive) | 43.2 µM (inactive)
O=C1c2ccccc2C(C2c3ccccc3C(=O)c3cc(Br)ccc32)c2ccc(Br)cc21 (stereo not drawn) | > 100 µM (inactive) | > 100 µM (inactive) | > 100 µM (inactive) | > 100 µM (inactive) | > 100 µM (inactive) | > 100 µM (inactive) | > 100 µM (inactive) | > 100 µM (inactive) | > 100 µM (inactive) | > 100 µM (inactive) | > 100 µM (inactive) | > 100 µM (inactive) | > 100 µM (inactive) | > 100 µM (inactive) | – | > 100 µM (inactive) | > 100 µM (inactive) | – | > 100 µM (inactive) | > 100 µM (inactive)
CC(C)(NC1=NCCO1)c1ccccc1 | > 100 µM (inactive) | > 100 µM (inactive) | > 100 µM (inactive) | > 100 µM (inactive) | > 100 µM (inactive) | > 100 µM (inactive) | > 100 µM (inactive) | > 100 µM (inactive) | > 100 µM (inactive) | > 100 µM (inactive) | > 100 µM (inactive) | > 100 µM (inactive) | > 100 µM (inactive) | > 100 µM (inactive) | > 100 µM (inactive) | > 100 µM (inactive) | > 100 µM (inactive) | – | > 100 µM (inactive) | > 100 µM (inactive)
COc1cc2c(cc1OC)CN1CCCc3cc(OC)c(OC)cc3C1C2 (stereo not drawn) | 36.1 µM (inactive) | 25.4 µM (inactive) | 36.6 µM (inactive) | 62.4 µM (inactive) | > 100 µM (inactive) | 38.6 µM (inactive) | 29.6 µM (inactive) | 27.9 µM (inactive) | 42.7 µM (inactive) | 12.9 µM (inactive) | 39.8 µM (inactive) | 50 µM (inactive) | 51.3 µM (inactive) | 32 µM (inactive) | 24.3 µM (inactive) | 61 µM (inactive) | 52.4 µM (inactive) | – | 44 µM (inactive) | 25 µM (inactive)
C/C(=N\NC(=S)NCCCNC(=S)N/N=C(\C)c1ccccn1)c1ccccn1 | 2.02 µM (inactive) | 2.81 µM (inactive) | 2.77 µM (inactive) | 5.28 µM (inactive) | 2.22 µM (inactive) | – | 2.66 µM (inactive) | 6.92 µM (inactive) | 1.98 µM (inactive) | 5.27 µM (inactive) | 9.1 µM (inactive) | 2.94 µM (inactive) | 7.94 µM (inactive) | 4.99 µM (inactive) | 2.42 µM (inactive) | 2.62 µM (inactive) | 7.33 µM (inactive) | 0.968 µM (active) | 3.79 µM (inactive) | 1.94 µM (inactive)
CN1CC2=C(N=C(S)NC2c2ccc(Cl)cc2)/C(=C/c2ccc(Cl)cc2)C1 (stereo not drawn) | 13.3 µM (inactive) | 16.1 µM (inactive) | 17.2 µM (inactive) | – | 17.2 µM (inactive) | 18.3 µM (inactive) | 18.2 µM (inactive) | > 10 µM (inactive) | 17.2 µM (inactive) | 17.6 µM (inactive) | 9.4 µM (inactive) | 18.5 µM (inactive) | 15.8 µM (inactive) | 18.5 µM (inactive) | 25.9 µM (inactive) | 23.9 µM (inactive) | 20 µM (inactive) | 15.6 µM (inactive) | 19.9 µM (inactive) | 19.2 µM (inactive)
Cc1c(C(=O)N2CCN(c3ccc([N+](=O)[O-])cc3)CC2)[n+]([O-])c2cc(Cl)c(Cl)cc2[n+]1[O-] | 10.9 µM (inactive) | 29.9 µM (inactive) | 20.9 µM (inactive) | 10.8 µM (inactive) | 16.8 µM (inactive) | 25.1 µM (inactive) | 15.8 µM (inactive) | – | 18.4 µM (inactive) | 19.1 µM (inactive) | 19.1 µM (inactive) | 36.8 µM (inactive) | 21.6 µM (inactive) | 26.4 µM (inactive) | 18.6 µM (inactive) | 17.3 µM (inactive) | 14.8 µM (inactive) | 21.2 µM (inactive) | 20.6 µM (inactive) | 21.7 µM (inactive)
O=C(Cn1c2c(c3ccccc31)CCCC2)N1CCCC1 | 54.3 µM (inactive) | > 100 µM (inactive) | – | 27.4 µM (inactive) | 96.4 µM (inactive) | > 100 µM (inactive) | 78.5 µM (inactive) | – | > 100 µM (inactive) | 61.8 µM (inactive) | > 100 µM (inactive) | – | > 100 µM (inactive) | > 100 µM (inactive) | 69.8 µM (inactive) | – | > 100 µM (inactive) | 88.9 µM (inactive) | > 100 µM (inactive) | > 100 µM (inactive)
CC(=O)OC/C=C(/CCl)CCC(Br)C(C)(C)Br.CC(=O)OC/C=C(\CCl)CCC(Br)C(C)(C)Br (stereo not drawn) | > 10 µM (inactive) | > 10 µM (inactive) | > 10 µM (inactive) | > 10 µM (inactive) | > 10 µM (inactive) | > 10 µM (inactive) | > 10 µM (inactive) | > 10 µM (inactive) | > 10 µM (inactive) | > 10 µM (inactive) | > 10 µM (inactive) | > 10 µM (inactive) | > 10 µM (inactive) | > 10 µM (inactive) | > 10 µM (inactive) | > 10 µM (inactive) | > 10 µM (inactive) | – | > 10 µM (inactive) | > 10 µM (inactive)
CN(C)/C=N/c1cc(=O)n(C)c(=O)n1C | > 100 µM (inactive) | > 100 µM (inactive) | > 100 µM (inactive) | > 100 µM (inactive) | > 100 µM (inactive) | > 100 µM (inactive) | > 100 µM (inactive) | > 100 µM (inactive) | > 100 µM (inactive) | > 100 µM (inactive) | > 100 µM (inactive) | > 100 µM (inactive) | > 100 µM (inactive) | > 100 µM (inactive) | > 100 µM (inactive) | > 100 µM (inactive) | > 100 µM (inactive) | – | > 100 µM (inactive) | > 100 µM (inactive)
c1ccc(C[N+]23CN4CN(CN(C4)C2)C3)cc1 | 23.9 µM (inactive) | 22 µM (inactive) | 18.4 µM (inactive) | 36.5 µM (inactive) | 78.5 µM (inactive) | 45.9 µM (inactive) | 17.3 µM (inactive) | > 100 µM (inactive) | 53.2 µM (inactive) | > 100 µM (inactive) | 17 µM (inactive) | 33.2 µM (inactive) | > 100 µM (inactive) | 26.7 µM (inactive) | 28.6 µM (inactive) | 29.3 µM (inactive) | 19.1 µM (inactive) | – | > 100 µM (inactive) | 69.2 µM (inactive)
CCCCCCCC1(N=[N+]=[N-])C(=O)Nc2ccccc2C1=O (stereo not drawn) | 15.1 µM (inactive) | 13.3 µM (inactive) | 15.1 µM (inactive) | 16.2 µM (inactive) | 18.9 µM (inactive) | 14.7 µM (inactive) | 11.3 µM (inactive) | – | 18.7 µM (inactive) | 17.3 µM (inactive) | 11.5 µM (inactive) | 22.5 µM (inactive) | 18.7 µM (inactive) | 16.1 µM (inactive) | 15.7 µM (inactive) | 15.6 µM (inactive) | 18.2 µM (inactive) | 24.2 µM (inactive) | – | 17.7 µM (inactive)
O=C1CSC(=S)N1c1ccc(F)cc1F | 25.4 µM (inactive) | 36.5 µM (inactive) | 59.2 µM (inactive) | 49.2 µM (inactive) | 42.2 µM (inactive) | 45.3 µM (inactive) | 70.8 µM (inactive) | > 100 µM (inactive) | > 100 µM (inactive) | 44.8 µM (inactive) | > 100 µM (inactive) | > 100 µM (inactive) | – | 78.7 µM (inactive) | 38.7 µM (inactive) | 44.6 µM (inactive) | 46.5 µM (inactive) | – | 94.8 µM (inactive) | > 100 µM (inactive)
